Key:
NCI-H358 cells = assay: Cell viability assay (Cell Counting Kit-8), KRAS G12C; format: cell-based; conditions: Homo sapiens, 72 hrs incubation, CCK-8
Description: (§1) The purpose of this cellular assay was to determine the effects of test compounds on the proliferation of human cancer cell lines NCI-H358 (ATCC-CRL5807) cells, AGS (ATCC-CRL-1739) cells, SW620 (ATCC-CCL-227) over a 3-day treatment period by quantifying the amount of NADPH present at endpoint using Cell Counting Kit-8.
(§2) Cells were seeded at 5,000 cells/well (NCI-H358), 2,000 cells/well (AGS) 2,000 cells/well (SW620) in 96-well assay plates (Corning-3699) and incubated overnight. On the day of the assay, diluted compounds were then added in a final concentration of 0.5% DMSO. After 72 hrs incubation, a tenth of the volume of cell counting kit 8 (Dnjindo-CK04) was added into each well. Read the signal (OD450 minus OD650) using EnVision after 2 hrs incubation. IC50 was determined by fitting a 4-parameter sigmoidal concentration response model.

AGS cells = assay: Cell viability assay (Cell Counting Kit-8), KRAS G12D; format: cell-based; conditions: Homo sapiens, 72 hrs incubation, CCK-8
Description: as §1, §2

SW620 cells = assay: Cell viability assay (Cell Counting Kit-8), KRAS G12V; format: cell-based; conditions: Homo sapiens, SW-620, 72 hrs incubation, CCK-8
Description: as §1, §2

KRAS G12C-BRAF complex = KRAS G12C-BRAF complex (Homo sapiens (Human), UniProt P01116+P62937, G12C); assay: KRAS-BRAF with CYPA (500 nM) interaction assay (TR-FRET), G12C; format: binding; conditions: GMPPNP loaded 6His-KRAS, GST-BRAF RBD, 3 hours
Description: (§3) KRAS-BRAF with CYPA (500 nM) Interaction Assay
(§4) In this example, TR-FRET was also used to measure the compound or compound-CYPA dependent disruption of the KRAS G12C-BRAF complex. This protocol was also used to measure disruption of KRAS G12D or KRAS G12V binding to BRAF by a compound of the invention, respectively. In assay buffer containing 25 mM HEPES PH=7.4 (4-(2-hydroxyethyl)-1-piperazineethanesulfonic acid, Thermo, 15630080), 0.002% Tween20, 0.1% BSA, 100 mM NaCl, 5 mM MgCl2, 10 μM GMPPNP (Guanosine 5′-[β,γ-imido]triphosphate trisodium salt hydrate, Sigma, G0635), tagless CYPA, GMPPNP loaded 6His-KRAS proteins, and GST-BRAF^RBD were mixed in a well of a 384-well assay plate at final concentrations of 50 nM, 6.25 nM and 1 nM, respectively. Compound was present in plate wells as a 16-point 3-fold dilution series starting at a final concentration of 10 μM and incubated for 3 hours. A mixture of MAb Anti-6His-XL665 (Cisbio, 61HISXLB) and Mab anti-GST-TB cryptate (Cisbio, 61GSTTLB) was then added at a final concentration of 6.67 nM and 0.21 nM, respectively, and the plate was incubated for an additional 1.5 hours. TR-FRET signal was read on a PHERstar FSX microplate reader (Ex320 nm, Em 665/615 nm). Compounds that facilitate disruption of the KRAS-BRAF complex were identified as those eliciting a decrease in the TR-FRET ratio relative to DMSO control wells.

[1] = molecular target: KRAS G12D binding to BRAF (Homo sapiens (Human), UniProt P01116+P62937, G12D); assay: KRAS-BRAF with CYPA (500 nM) interaction assay (TR-FRET), G12D; conditions: GMPPNP loaded 6His-KRAS, GST-BRAF RBD, 3 hours
Description: as §3, §4

[2] = molecular target: KRAS G12V binding to BRAF (Homo sapiens (Human), UniProt P01116+P62937, G12V); assay: KRAS-BRAF with CYPA (500 nM) interaction assay (TR-FRET), G12V; conditions: GMPPNP loaded 6His-KRAS, GST-BRAF RBD, 3 hours
Description: as §3, §4

[3] = tested on: phosphorylation of ERK, KRAS G12C in NCI-H358 cells; assay: pERK inhibition assay, KRAS G12C; format: cell-based; conditions: Homo sapiens, 4 hours of incubation
Description: (§5) This assay is to measure the ability of test compounds in inhibiting the phosphorylation of ERK, the downstream signaling of KRAS G12C in NCI-H358 cells, KRAS G12D in AGS cells, and KRAS G12V in SW620. NCI-H358 (ATCC-CRL5807) cells, AGS (ATCC-CRL-1739) cells, SW620 (ATCC-CCL-227) cells were all grown and maintained using RPMI-1640 medium (Thermo Fisher Scientific) with 10% fetal bovine serum and 1% penicillin/streptomycin. On the day prior to compound addition, cells were plated in tissue culture-treated 96 well plates (Corning-3699) at a density of 30,000 cell/well, 20,000 cell/well, 30,000 cell/well for NCI-H358, AGS and SW620 respectively, and allowed for attachment overnight. Diluted compounds were then added in a final concentration of 0.5% DMSO. After 4 hours of incubation, the medium was removed, 100 μL of 4% formaldehyde was added, and the assay plates were incubated at room temperature for 20 minutes. The plates were then washed once with phosphate buffered saline (PBS), and permeabilized with 100 μL of chilled methanol for 10 minutes. Non-specific antibody binding to the plates was blocked using 50 μL 1×BSA blocking buffer (Thermo-37520, 10-fold dilution by Phosphate-Buffered Saline Tween (PBST) for at least 1 hour at room temperature.
(§6) The amount of phosphor-ERK was determined using an antibody specific for phosphorylated form of ERK. Primary antibody (pERK, CST-4370, Cell Signaling Technology) was diluted 1:300 in blocking buffer, with 50 μL aliquoted to each well, and incubated overnight at 4° C. Cells was washed five times for 5 minutes with PBST. Secondary antibody (HRP-linked anti-rabbit IgG, CST-7074, Cell Signaling Technology) was diluted 1:1000 in blocking buffer, and 50 μL was added to each well and incubated 1-2 hrs at room temperature. Cells was washed 5 times for 5 minutes with PBST, 100 μL TMB ELISA substrate (abcam-ab171523) were added and gently shake for 20 minutes. 50 μL stop solution (abcam-ab171529) were added, and then read the signal (OD450) by EnVision.
(§7) IC50 was determined by fitting a 4-parameter sigmoidal concentration response model.

[4] = tested on: phosphorylation of ERK, KRAS G12D in AGS cells; assay: pERK inhibition assay, KRAS G12D; format: cell-based; conditions: Homo sapiens, 4 hours of incubation
Description: as §5, §6, §7

[5] = tested on: phosphorylation of ERK, KRAS G12V in SW620; assay: pERK inhibition assay, KRAS G12V; format: cell-based; conditions: Homo sapiens, SW-620; SW620 cells, 4 hours of incubation
Description: as §5, §6, §7

Chain of KRAS G12V binding to BRAF (P01116-2 other isoform, or with tags, fused parts or gaps G12V): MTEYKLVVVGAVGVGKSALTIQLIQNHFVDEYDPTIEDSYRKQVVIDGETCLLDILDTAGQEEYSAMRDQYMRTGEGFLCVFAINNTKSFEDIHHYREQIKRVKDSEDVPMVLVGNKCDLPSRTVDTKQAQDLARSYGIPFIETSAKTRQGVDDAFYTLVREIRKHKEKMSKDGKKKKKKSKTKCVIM
Chain of KRAS G12V binding to BRAF (P62937 whole entry): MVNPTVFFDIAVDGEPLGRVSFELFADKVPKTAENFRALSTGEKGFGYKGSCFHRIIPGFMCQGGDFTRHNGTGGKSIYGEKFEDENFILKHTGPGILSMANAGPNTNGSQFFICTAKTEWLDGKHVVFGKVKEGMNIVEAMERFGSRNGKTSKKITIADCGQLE
Chain of KRAS G12C-BRAF complex (P01116-2 other isoform, or with tags, fused parts or gaps G12C): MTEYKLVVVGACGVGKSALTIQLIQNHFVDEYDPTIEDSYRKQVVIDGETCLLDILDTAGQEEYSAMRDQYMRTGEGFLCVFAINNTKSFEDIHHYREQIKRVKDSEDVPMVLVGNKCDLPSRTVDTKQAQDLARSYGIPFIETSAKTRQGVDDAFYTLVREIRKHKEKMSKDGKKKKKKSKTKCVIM
Chain of KRAS G12C-BRAF complex (P62937 whole entry): as the sequence (P62937 whole entry) above
Chain of KRAS G12D binding to BRAF (P01116-2 other isoform, or with tags, fused parts or gaps G12D): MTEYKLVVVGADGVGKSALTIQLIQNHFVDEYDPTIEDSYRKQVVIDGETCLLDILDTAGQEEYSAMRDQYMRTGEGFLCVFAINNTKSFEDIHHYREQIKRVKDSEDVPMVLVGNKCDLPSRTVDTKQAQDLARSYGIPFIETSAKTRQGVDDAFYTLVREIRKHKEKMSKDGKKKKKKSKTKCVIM
Chain of KRAS G12D binding to BRAF (P62937 whole entry): as the sequence (P62937 whole entry) above

In the case of `CCn1c(-c2cc(N3CCN(C)CC3)cnc2[C@H](C)OC)c2c3cc(c(F)cc31)-c1csc(n1)C[C@H](NC(=O)[C@H]1C[C@@H]1C(F)F)C(=O)N1CCC[C@H](N1)C(=O)OCC(C)(C)C2` (atropisomer, axis not shown; (M)) [Example 3, (1S,2S)-2-(difluoromethyl)-N-[(7S,13S)-21-ethyl-24-fluoro-(20M)-20-[2-[(1S)-1-methoxyethyl]-5-(4-methylpiperazin-1-yl)-3-pyridyl]-17,17-dimethyl-8,14-dioxo-15-oxa-4-thia-9,21,27,28-tetrazapentacyclo[17.5.2.1^2,5.1^9,13.0^22,26]octacosa-1(25),2,5(28),19,22(26),23-hexaen-7-yl]cyclopropanecarboxamide], the IC50 (NCI-H358 cells) is reported as 0.0116 µM, the IC50 (AGS cells) is reported as 0.197 µM and the IC50 (SW620 cells) is reported as 0.008 µM. For the same compound, the IC50 (KRAS G12C-BRAF complex) was 0.196 µM, the IC50 [1] was 1.72 µM and the IC50 [2] was 0.243 µM. For the same compound, the IC50 [3] was 0.011 µM, the IC50 [4] was 0.029 µM and the IC50 [5] was 0.005 µM.
Compound `CO[C@@H](C)c1ncc(N2CCN(C)CC2)cc1-c1c2c3cc(c(F)cc3n1CC(F)(F)F)-c1csc(n1)C[C@H](NC(=O)[C@H]1C[C@@H]1C)C(=O)N1CCC[C@H](N1)C(=O)OCC(C)(C)C2` (atropisomer, axis not shown; (M)) [Example 4, (1S,2S)—N-[(7S,13S)-24-fluoro-(20M)-20-[2-[(1S)-1-methoxyethyl]-5-(4-methylpiperazin-1-yl)-3-pyridyl]-17,17-dimethyl-8,14-dioxo-21-(2,2,2-trifluoroethyl)-15-oxa-4-thia-9,21,27,28-tetrazapentacyclo[17.5.2.1^2,5.1^9,13.0^22,26]octacosa-1(25),2,5(28),19,22(26),23-hexaen-7-yl]-2-methyl-cyclopropanecarboxamide] has an IC50 (NCI-H358 cells) of 0.019 µM, an IC50 (AGS cells) of 1.27 µM and an IC50 (SW620 cells) of 0.013 µM. It also gave an IC50 (KRAS G12C-BRAF complex) of 0.036 µM, an IC50 [1] of 0.544 µM and an IC50 [2] of 0.095 µM. It also gave an IC50 [3] of 0.02 µM, an IC50 [4] of 0.047 µM and an IC50 [5] of 0.007 µM.
For `CCn1c(-c2cc(N3CCN(CC(F)(F)F)CC3)cnc2[C@H](C)OC)c2c3cc(c(F)cc31)-c1csc(n1)C[C@H](NC(=O)[C@H]1C[C@@H]1C)C(=O)N1CCC[C@H](N1)C(=O)OCC(C)(C)C2` (atropisomer, axis not shown; (M)) [Example 7, (1S,2S)—N-[(7S,13S)-21-ethyl-24-fluoro-(20M)-20-[2-[(1S)-1-methoxyethyl]-5-[4-(2,2,2-trifluoroethyl)piperazin-1-yl]-3-pyridyl]-17,17-dimethyl-8,14-dioxo-15-oxa-4-thia-9,21,27,28-tetrazapentacyclo[17.5.2.1^2,5.1^9,13.0^22,26]octacosa-1(25),2,5(28),19,22(26),23-hexaen-7-yl]-2-methyl-cyclopropanecarboxamide], the IC50 (NCI-H358 cells) was 0.074 µM, the IC50 (AGS cells) was 0.389 µM and the IC50 (SW620 cells) was 0.027 µM. For the same compound, the IC50 (KRAS G12C-BRAF complex) was 0.192 µM, the IC50 [1] was > 10 µM and the IC50 [2] was 0.697 µM. It also gave an IC50 [3] of 0.071 µM, an IC50 [4] of 0.115 µM and an IC50 [5] of 0.02 µM.
With `CCn1c(-c2cc(N3CCOCC3)cnc2[C@H](C)OC)c2c3cc(c(F)cc31)-c1csc(n1)C[C@H](NC(=O)[C@H]1C[C@@H]1C)C(=O)N1CCC[C@H](N1)C(=O)OCC(C)(C)C2` (atropisomer, axis not shown; (M)) [Example 8, (1S,2S)—N-[(7S,13S)-21-ethyl-24-fluoro-(20M)-20-[2-[(1S)-1-methoxyethyl]-5-morpholino-3-pyridyl]-17,17-dimethyl-8,14-dioxo-15-oxa-4-thia-9,21,27,28-tetrazapentacyclo[17.5.2.1^2,5.1^9,13.0^22,26]octacosa-1(25),2,5(28),19,22(26),23-hexaen-7-yl]-2-methyl-cyclopropanecarboxamide] the IC50 (NCI-H358 cells) was 0.016 µM, the IC50 (AGS cells) was 1.49 µM and the IC50 (SW620 cells) was 0.013 µM. For the same compound, the IC50 (KRAS G12C-BRAF complex) was 0.16 µM, the IC50 [1] was 1.67 µM and the IC50 [2] was 0.143 µM. For the same compound, the IC50 [3] was 0.023 µM, the IC50 [4] was 0.056 µM and the IC50 [5] was 0.008 µM.
In the case of `CO[C@@H](C)c1ncc(N2CCN(CC(F)(F)F)CC2)cc1-c1c2c3cc(c(F)cc3n1CC(F)(F)F)-c1csc(n1)C[C@H](NC(=O)[C@H]1C[C@@H]1C)C(=O)N1CCC[C@H](N1)C(=O)OCC(C)(C)C2` (atropisomer, axis not shown; (M)) [Example 9, (1S,2S)—N-[(7S,13S)-24-fluoro-(20M)-20-[2-[(1S)-1-methoxyethyl]-5-[4-(2,2,2-trifluoroethyl)piperazin-1-yl]-3-pyridyl]-17,17-dimethyl-8,14-dioxo-21-(2,2,2-trifluoroethyl)-15-oxa-4-thia-9,21,27,28-tetrazapentacyclo[17.5.2.1^2,5.1^9,13.0^22,26]octacosa-1(25),2,5(28),19,22(26),23-hexaen-7-yl]-2-methyl-cyclopropanecarboxamide], the IC50 (NCI-H358 cells) is reported as 0.224 µM, the IC50 (AGS cells) is reported as 0.704 µM and the IC50 (SW620 cells) is reported as 0.04 µM. The IC50 (KRAS G12C-BRAF complex) was 0.09 µM, the IC50 [1] was 0.66 µM and the IC50 [2] was 0.171 µM. It also gave an IC50 [3] of 0.047 µM, an IC50 [4] of 0.161 µM and an IC50 [5] of 0.022 µM.
`CO[C@@H](C)c1ncc(N2CCN(C)CC2)cc1-c1c2c3c(F)c(ccc3n1CC(F)(F)F)-c1csc(n1)C[C@H](NC(=O)[C@H]1C[C@@H]1C)C(=O)N1CCC[C@H](N1)C(=O)OCC(C)(C)C2` (atropisomer, axis not shown; (M)) [Example 10, (1S,2S)—N-[(7S,13S)-25-fluoro-(20M)-20-[2-[(1S)-1-methoxyethyl]-5-(4-methylpiperazin-1-yl)-3-pyridyl]-17,17-dimethyl-8,14-dioxo-21-(2,2,2-trifluoroethyl)-15-oxa-4-thia-9,21,27,28-tetrazapentacyclo[17.5.2.1^2,5.1^9,13.0^22,26]octacosa-1(25),2,5(28),19,22(26),23-hexaen-7-yl]-2-methyl-cyclopropanecarboxamide] was tested, and the IC50 (NCI-H358 cells) was 0.012 µM, the IC50 (AGS cells) was 0.013 µM and the IC50 (SW620 cells) was 0.003 µM. It also gave an IC50 (KRAS G12C-BRAF complex) of 0.009 µM, an IC50 [1] of 0.02 µM and an IC50 [2] of 0.013 µM. It also gave an IC50 [3] of 0.017 µM, an IC50 [4] of 0.011 µM and an IC50 [5] of 0.002 µM.

From patent US20250250284A1, “MACROCYCLE COMPOUNDS USEFUL AS KRAS INHIBITORS” (Hoffmann-La Roche Inc., priority 2022, published 2025)
